21 compounds from patent publication EP3789378A1, “PIPERIDINES OR PIPERIDONES SUBSTITUTED WITH UREA AND HETEROARYL” (Grünenthal GmbH, priority 2019, dated 2021) can be followed below.

The first assay has as its target T1, h FPR2 (Homo sapiens, UniProt P25090).
T1 construct: expressed in transfected cells
T1 sequence (P25090 1-351): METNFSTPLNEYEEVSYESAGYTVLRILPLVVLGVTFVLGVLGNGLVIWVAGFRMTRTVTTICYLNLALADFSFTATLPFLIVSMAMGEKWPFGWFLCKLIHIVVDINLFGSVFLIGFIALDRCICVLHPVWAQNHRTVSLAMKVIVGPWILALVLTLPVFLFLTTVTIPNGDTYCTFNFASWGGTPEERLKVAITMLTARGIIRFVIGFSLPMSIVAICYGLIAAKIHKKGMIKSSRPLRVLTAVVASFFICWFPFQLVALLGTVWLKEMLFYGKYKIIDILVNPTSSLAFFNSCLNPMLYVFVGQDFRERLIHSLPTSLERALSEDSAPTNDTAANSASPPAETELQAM
Put plainly: Agonistic activity in hFPR2-Aq-CHO cells (FLIPR Calcium 5 fluorescence assay). In kind it is cell-based. As to conditions: 11 point half log dilution, final assay concentration from 10µM. Summed up: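 hFPR2-Aq-CHO cells were loaded with Calcium 5 dye for 30 min at 37 °C and equilibrated 10 min at room temperature. Compound (11 points, 10 µM to 100 pM final) was added in HBSS/HEPES/probenecid buffer pH 7.4. Fluorescence rise over basal across 5 min, relative to no-compound wells, gave EC50.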
A word on the EC50: it is the concentration at which the effect is half-maximal. For `COc1ccc([C@@H]2CN(c3ccc(F)cc3)C(=O)C[C@H]2NC(=O)Nc2ccc(Cl)cc2)cn1` (relative stereo) [Ex-5, trans-1-(4-chlorophenyl)-3-[-1-(4-fluorophenyl)-5-(6-methoxypyridin-3-yl)-2-oxopiperidin-4-yl]urea], the EC50 is 0.16 nM.
Same read-out and setting: as for `COc1ccc([C@@H]2CN(Cc3cncc(C)c3)CC[C@H]2NC(=O)Nc2ccc(Cl)cc2)nc1` (relative stereo) [Ex-64, trans-1-(4-chlorophenyl)-3-(3-(5-methoxypyridin-2-yl)-1-((5-methylpyridin-3-yl)methyl)piperidin-4-yl)urea], the figure is 0.06 nM; as for `COc1ccc([C@@H]2CN(Cc3cnc(OC)nc3)CC[C@H]2NC(=O)Nc2ccc(Cl)cc2)nc1` (relative stereo) [Ex-66, trans-1-(4-chlorophenyl)-3-[3-(5-methoxypyridin-2-yl)-1-[(2-methoxypyrimidin-5-yl)methyl]piperidin-4-yl]urea], 0.2 nM.
With `COc1ncc(CN2CC[C@@H](NC(=O)Nc3ccc(Cl)cc3)[C@H](c3ccc(Cl)s3)C2)cn1` (relative stereo) [Ex-75, trans-1-(4-chlorophenyl)-3-[3-(5-chlorothiophen-2-yl)-1-[(2-methoxypyrimidin-5-yl)methyl]piperidin-4-yl]urea], the EC50 came out at 3 nM.
On to `COc1ccc([C@@H]2CN(c3ccc(F)cc3)CC[C@H]2NC(=O)Nc2cc(C)ns2)nc1` (relative stereo) [Ex-20, trans-1-[1'-(4-fluoro-phenyl)-5-methoxy-1',2',3',4',5',6'-hexahydro-[2,3']bipyridinyl-4'-yl]-3-(3-methyl-isothiazol-5-yl)-urea], for which the EC50 amounted to 1 nM.
`COc1ccc([C@@H]2CN(CCO)CC[C@H]2NC(=O)Nc2ccccc2)nc1` (relative stereo) [Ex-164, trans-1-[1-(2-Hydroxy-ethyl)-3-(5-methoxy-pyridin-2-yl)-piperidin-4-yl]-3-phenyl-urea]: the EC50 worked out at 56 nM.
Consider `COc1ccc([C@@H]2CN(C(=O)C3CCN(C)CC3)CC[C@H]2NC(=O)Nc2ccc(Cl)cc2)nc1` (racemic) [Ex-89, trans-1-(4-chloro-phenyl)-3-[5-methoxy-1'-(1-methyl-piperidine-4-carbonyl)-1',2',3',4',5',6'-hexahydro-[2,3']bipyridinyl-4'-yl]-urea], for which the EC50 was determined as 2 nM.
Still for that read-out and setting: as for `COc1ccc([C@@H]2CN(c3ccncn3)CC[C@H]2NC(=O)Nc2cc(C)ns2)cn1` (relative stereo) [Ex-4, trans-1-(6'-methoxy-1-pyrimidin-4-yl-1,2,3,4,5,6-hexahydro-[3,3']bipyridinyl-4-yl)-3-(3-methyl-isothiazol-5-yl)-urea], the figure is 11 nM; as for `O=C(Nc1ccc(Cl)cc1)N[C@@H]1CCN(Cc2ccc(C3CC3)nc2)C[C@H]1c1ccc(Cl)s1` (relative stereo) [Ex-73, trans-1-(4-chlorophenyl)-3-[3-(5-chlorothiophen-2-yl)-1-[(6-cyclopropylpyridin-3-yl)methyl]piperidin-4-yl]urea], 4 nM; as for `COc1ccc([C@@H]2CN(c3ccncn3)CC[C@H]2NC(=O)Nc2ccc(Cl)cc2)nc1` (relative stereo) [Ex-7, trans-1-(4-chloro-phenyl)-3-(5-methoxy-1'-pyrimidin-4-yl-1',2',3',4',5',6'-hexahydro-[2,3']bipyridinyl-4'-yl)-urea], 0.4 nM.
The same measure, in the same setting: as for `COc1ccc([C@@H]2CN(C(=O)C3CCC(OC)CC3)CC[C@H]2NC(=O)Nc2ccc(Cl)cc2)nc1` (relative stereo) [Ex-81, trans-1-(4-chloro-phenyl)-3-[5-methoxy-1'-(4-methoxy-cyclohexanecarbonyl)-1',2',3',4',5',6'-hexahydro-[2,3']bipyridinyl-4'-yl]-urea], the figure is 13 nM; as for `COc1ccc([C@@H]2CN(CCCO)CC[C@H]2NC(=O)Nc2ccc(Cl)cc2)nc1` (relative stereo) [Ex-103, trans-1-(4-chloro-phenyl)-3-[1'-(3-hydroxy-propyl)-5-methoxy-1',2',3',4',5',6'-hexahydro-[2,3']bipyridinyl-4'-yl]-urea], 2 nM; as for `COc1cnc([C@@H]2CN(CC3COC3)CC[C@H]2NC(=O)Nc2ccc(Cl)cc2)c(F)c1` (relative stereo) [Ex-200, trans-1-(4-chloro-phenyl)-3-(3-fluoro-5-methoxy-1'-oxetan-3-ylmethyl-1',2',3',4',5',6'-hexahydro-[2,3']bipyridinyl-4'-yl)-urea], 0.4 nM.
The same measure, in the same setting: the value for `COc1ccc([C@@H]2CN(CC3CC(O)C3)CC[C@H]2NC(=O)Nc2ccc(Cl)cc2)nc1` (single isomer, unassigned) [Ex-203, trans-1-(4-chloro-phenyl)-3-[1'-(3-hydroxy-cyclobutylmethyl)-5-methoxy-1',2',3',4',5',6'-hexahydro-[2,3']bipyridinyl-4'-yl]-urea] was 0.7 nM; that for `COCCCN1CC[C@@H](NC(=O)Nc2ccc(Cl)cc2)[C@H](c2ccc(OC)cn2)C1` (racemic) [Ex-80, trans-1-(4-chloro-phenyl)-3-[5-methoxy-1'-(3-methoxy-propyl)-1',2',3',4',5',6'-hexahydro-[2,3']bipyridinyl-4'-yl]-urea] was 0.9 nM; that for `CN1CCC(C(=O)N2CC[C@@H](NC(=O)Nc3ccc(Cl)cc3)[C@H](c3ccc(Cl)s3)C2)CC1` (relative stereo) [Ex-104, trans-1-(4-chloro-phenyl)-3-[3-(5-chloro-thiophen-2-yl)-1-(1-methyl-piperidine-4-carbonyl)-piperidin-4-yl]-urea] was 6 nM.
Consider `COc1ccc([C@@H]2CN(CC3(C#N)CC3)CC[C@H]2NC(=O)Nc2ccc(Cl)cc2)nc1` (relative stereo) [Ex-155, trans-1-(4-Chlorophenyl)-3-[1-[(1-cyano-cyclopropyl)-methyl]-3-(5-methoxy-pyridin-2-yl)-piperidin-4-yl]-urea], for which the EC50 stood at 0.09 nM.
Take `COc1ccc([C@@H]2CN(C(=O)c3ccc(C(F)(F)F)nc3)CC[C@H]2NC(=O)Nc2ccc(Cl)cc2)nc1` (single isomer, unassigned) [Ex-100, trans-1-(4-chlorophenyl)-3-[3-(5-methoxypyridin-2-yl)-1-{[6-(trifluoromethyl)pyridin-3-yl]carbonyl}piperidin-4-yl]urea]: the EC50 was found to be 93 nM.
As to `Cc1cncc(CN2CC[C@@H](NC(=O)Nc3ccc(Cl)cc3)[C@H](c3ccc(Cl)s3)C2)c1` (relative stereo) [Ex-72, trans-1-(4-chlorophenyl)-3-(3-(5-chlorothiophen-2-yl)-1-((5-methylpyridin-3-yl)methyl)piperidin-4-yl)urea], the EC50 worked out at 2 nM.

The assay is the same for the next values; noted with them: agonistic response at 0.1µM.
`Cc1cc(CN2CC[C@@H](NC(=O)Nc3ccc(Cl)cc3)[C@H](c3ccc(Cl)cn3)C2)no1` (relative stereo) [Ex-23, trans-1-(4-chlorophenyl)-3-[3-(5-chloropyridin-2-yl)-1-[(5-methyl-1,2-oxazol-3-yl)methyl]piperidin-4-yl]urea]: the activation at 0.1 µM was 28%.
Regarding `COc1ccc([C@@H]2CN(C(=O)CN(C)C)CC[C@H]2NC(=O)Nc2ccc(Cl)cc2)nc1` (relative stereo) [Ex-190, trans-1-(4-chlorophenyl)-3-[1-[2-(dimethylamino)acetyl]-3-(5-methoxypyridin-2-yl)piperidin-4-yl]urea], the activation at 0.1 µM worked out at 8%.
